From patent publication US9029328B2, “Methods for cardioprotection and cardioregeneration with dimers of EGF family ligands” (The Brigham and Women's Hospital, Inc., priority 2010, dated 2015)
pKd: −log10 of the molar value.

Columns and labels:
[1] = test system: HeLa cells; experiment: ERK phosphorylation in HeLa cells (EGF containing ligands); type: cell-based; settings: inhibitor control
Experimental: (§1) FIG. 3. Bioactivity of engineered ligands. Stimulation of ERK phosphorylation by engineered EGF (C1, C2) and NRG (C3, C4) compared to native protein. Inhibition of phosphorylation was accomplished via a pan-ErbB kinase inhibitor N-(4-((3-Chloro-4-fluorophenyl)amino)-pyrido[3,4-d]pyrimidin-6-yl)2-butynamide (i), indicating specificity; FIG. 3A (HeLa), FIG. 3B (MCF-7).
(§2) Proteins are produced using a maltose binding protein (MBP) tagged system (pMAL-c2X, New England Biolabs). Proteins are analyzed by Coomassie staining, immunoblotting, mass spectrometry, absorbance at 280 nm, and in vitro cell response versus wild type ligands EGF and NRG. Specificity for ErbB receptor activation was further assessed by including inhibitor controls using the pan-ErbB kinase inhibitor N-(4-((3-Chloro-4-fluorophenyl)amino)-pyrido[3,4-d]pyrimidin-6-yl)-2-butynamide. Bioactivity and ErbB specificity were validated in HeLa and MCF-7 cells (for EGF and NRG containing ligands, respectively) (FIG. 3). HeLa cells express EGFR and ErbB2 and are responsive to EGF while MCF-7 cells express ErbB3 and ErbB4 and are responsive to NRG.

[2] = test system: MCF-7 cells; experiment: ERK phosphorylation in MCF-7 cells (NRG containing ligands); type: cell-based; settings: inhibitor control
Experimental: as §1, §2

[3] = test system: HER3 and HER4 receptors; experiment: NRG relative affinity for HER3 and HER4 versus HER1; type: binding
Source text: Accordingly, in the context of cardiomyocytes, receptor signaling bias can be achieved, for example, through use of a ligand with high affinity for HER4/ErbB4. One such ligand is neuregulin-1β (NRG or NRG1, as used herein). To this end, the invention provides an NRG ligand homodimer. This homodimer induces HER4 homodimerization due to the high affinity of NRG for HER4/ErbB4. NRG binds HER3 and HER4 receptors with approximately 5000-fold greater affinity than HER1. ErbB3 is not expressed on cardiomyocytes however so exposure of these cells to an NRG dimer will stimulate the dimerization of HER4 homodimers without interference from HER3 receptors.

[4] = test system: hTERT-immortalized human mesenchymal stem cells (hTMSC); experiment: ERK phosphorylation in hTMSC, western analysis with densitometry; type: cell-based
Experimental: FIG. 4. Cellular responses differ between native and bivalent NRG. (A) hTMSC were exposed to native (rhNRG), monovalent (C3, C4) and bivalent (NN) NRG in culture. ERK phosphorylation was measured via western analysis and quantified by densitometry.
Since NRG has high affinity for ErbB3 as well as ErbB4, and since ErbB3 is kinase-deficient, recruitment of ErbB3 homodimers via bivalent NRG should produce a null signaling outcome, whereas native or monovalent engineered NRG should be capable of stimulating ERK phosphorylation in these cells via ErbB2/ErbB3 mediated signaling.

[5] = test system: Neonatal rat cardiomyocytes (NRCM); experiment: Cardiomyocyte viability under doxorubicin, cell titer blue assay; type: cell-based; settings: FIGS. 6 and 7; monomers compared with dimers
Experimental: FIG. 5. Bivalent NRG attenuates doxorubicin-induced toxicity to cardiomyocytes in vitro. (A) Neonatal rat cardiomyocytes (NRCM) were simultaneously exposed to doxorubicin (1 μM) and either fibroblast growth factor-1 (FGF1, a known NRCM mitogen), native NRG (NRG), or bivalent NRG (NRG-NRG) at the indicated doses. […] (B) Bivalent NRG may preferentially activate the PI3K/Akt pro-survival signaling pathway.
FIG. 6 is a bar graph showing the effect of NRG monomers and NRG homodimers on cardiomyocyte viability in the presence of doxorubicin.
FIG. 7 is a bar graph showing the effect of NRG monomers, NRG homodimers, EGF-NRG heterodimers, and EGF and NRG monomers on cardiomyocyte viability in the presence of doxorubicin.
The activity of engineered ErbB receptor ligands has been verified in multiple cell systems. ErbB receptor profiles in cardiomyocytes are distinct. The efficacy of engineered bivalent ligands has been tested on cardiomyocytes in culture. Specifically, the effects of native and bivalent NRG on cardiomyocytes exposed to DOX-induced cytotoxicity were examined. […] If this effect of bivalent NRG is validated in vivo, it could have significant potential as a new cardioprotective agent against DOX-induced cardiomyopathy.
FIGS. 6 and 7 show similar results.

[6] = biological target: T1, soluble crosslinked HER3 homodimers (ErbB3) (Homo sapiens, UniProt P21860); experiment: Aggregation of soluble ErbB3 by dynamic light scattering; type: binding; settings: various ligand:ErbB3 ratios, n=10
T1 construct: exposed to soluble crosslinked HER3 homodimers (ErbB3)
Experimental: FIG. 10. Specific binding of bivalent NN to HER3. Bivalent NN, monovalent NRG
(NC and NN), native NRG, or bivalent EN were exposed to soluble crosslinked HER3 homodimers (ErbB3) and hydrodynamic radius (RH) at various ligand:ErbB3 ratios. Receptor aggregation was determined by dynamic light scattering (n=10).

[7] = biological target: ErbB4 (Homo sapiens, UniProt Q15303); settings: NRG binding to ErbB4, reference [18]; cited from earlier work
[8] = biological target: ErbB1 (Homo sapiens, UniProt P00533); settings: NRG binding to ErbB1, reference [18]; cited from earlier work
[9] = FDA label; cited from earlier work
[10] = test system: ErbB2 and ErbB3 receptors in H3255 cells; experiment: Western blot of pHER2 and pHER3 in H3255 cell lysates; type: cell-based
Source text: FIG. 9. Western blot analysis of pHER2 and pHER3 in lysates from H3255 cells stimulated by monovalent NRG (NC) or bivalent NRG (NN) (data representative of 2 independent experiments) (FIG. 9B). A possible mechanism for the observed differences in monovalent NRG compared to bivalent NN, in which NN fosters homodimerization or homo-oligomerization of HER3 at the expense of heterodimers with HER2, is illustrated in the schematic (FIG. 9A).
This hypothesis is further supported by the use of H3255 cells, which express high levels of the ErbB3 receptor and low levels of the ErbB4 receptor. Because the potential phenotypic effects associated with dimerization, oligomerization, and/or aggregation are more apparent with ErbB3 than ErbB4, this setting was chosen for proof-of-concept experiments.

[11] = test system: infarcted hearts; settings: nanofiber delivery, n=7, from reference [10]; cited from earlier work

T1 sequence (P21860 20-643 limits assumed): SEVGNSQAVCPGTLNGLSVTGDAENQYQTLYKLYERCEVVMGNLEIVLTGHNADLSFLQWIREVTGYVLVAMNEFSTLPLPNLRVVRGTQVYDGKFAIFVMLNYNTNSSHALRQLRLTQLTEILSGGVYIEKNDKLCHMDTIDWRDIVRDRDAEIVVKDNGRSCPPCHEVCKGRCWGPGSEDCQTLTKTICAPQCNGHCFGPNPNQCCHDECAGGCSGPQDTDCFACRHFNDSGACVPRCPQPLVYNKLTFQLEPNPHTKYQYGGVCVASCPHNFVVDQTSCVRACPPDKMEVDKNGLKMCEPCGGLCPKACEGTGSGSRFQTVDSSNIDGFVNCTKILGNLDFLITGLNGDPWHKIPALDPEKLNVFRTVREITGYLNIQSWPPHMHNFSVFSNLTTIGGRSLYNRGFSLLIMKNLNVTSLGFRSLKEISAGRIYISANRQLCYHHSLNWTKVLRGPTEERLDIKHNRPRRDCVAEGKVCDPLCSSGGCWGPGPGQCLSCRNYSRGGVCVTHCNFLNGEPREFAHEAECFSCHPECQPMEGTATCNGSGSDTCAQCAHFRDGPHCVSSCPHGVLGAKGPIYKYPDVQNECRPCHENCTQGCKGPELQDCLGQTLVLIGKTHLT
ErbB4, sequence (Q15303 26-1308, species assumed): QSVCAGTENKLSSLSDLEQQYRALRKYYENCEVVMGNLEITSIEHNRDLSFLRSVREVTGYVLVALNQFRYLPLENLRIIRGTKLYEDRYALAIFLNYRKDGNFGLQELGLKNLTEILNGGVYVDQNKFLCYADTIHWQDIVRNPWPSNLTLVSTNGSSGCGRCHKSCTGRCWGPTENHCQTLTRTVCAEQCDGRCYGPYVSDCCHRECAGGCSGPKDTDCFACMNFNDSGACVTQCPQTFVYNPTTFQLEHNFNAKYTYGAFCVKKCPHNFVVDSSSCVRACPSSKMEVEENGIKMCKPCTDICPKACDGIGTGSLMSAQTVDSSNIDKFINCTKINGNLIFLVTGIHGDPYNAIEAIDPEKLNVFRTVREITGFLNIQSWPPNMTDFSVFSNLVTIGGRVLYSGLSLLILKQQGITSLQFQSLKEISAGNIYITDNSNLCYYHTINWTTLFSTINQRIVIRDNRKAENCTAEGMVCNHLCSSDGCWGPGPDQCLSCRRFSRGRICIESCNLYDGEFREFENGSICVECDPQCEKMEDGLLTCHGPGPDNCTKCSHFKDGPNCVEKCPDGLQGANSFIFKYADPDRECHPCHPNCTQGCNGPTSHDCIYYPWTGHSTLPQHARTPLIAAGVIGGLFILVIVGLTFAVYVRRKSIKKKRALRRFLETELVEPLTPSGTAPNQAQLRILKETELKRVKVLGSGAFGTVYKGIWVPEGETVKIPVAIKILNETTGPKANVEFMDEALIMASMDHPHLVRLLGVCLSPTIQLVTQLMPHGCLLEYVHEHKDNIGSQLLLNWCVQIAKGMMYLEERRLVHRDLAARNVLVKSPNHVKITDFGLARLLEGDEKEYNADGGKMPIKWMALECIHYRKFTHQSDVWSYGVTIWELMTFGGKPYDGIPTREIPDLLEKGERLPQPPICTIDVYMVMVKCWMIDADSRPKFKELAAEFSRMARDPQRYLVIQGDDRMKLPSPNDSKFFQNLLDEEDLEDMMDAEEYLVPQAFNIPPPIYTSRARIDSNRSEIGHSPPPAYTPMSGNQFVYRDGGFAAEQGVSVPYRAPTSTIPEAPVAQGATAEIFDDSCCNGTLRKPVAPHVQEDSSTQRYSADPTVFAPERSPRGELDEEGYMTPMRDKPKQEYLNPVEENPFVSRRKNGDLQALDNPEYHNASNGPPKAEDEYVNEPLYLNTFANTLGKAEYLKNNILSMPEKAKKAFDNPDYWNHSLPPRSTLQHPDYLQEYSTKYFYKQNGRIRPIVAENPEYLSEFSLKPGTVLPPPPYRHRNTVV

Compound: CC#CC(=O)Nc1cc2c(Nc3ccc(F)c(Cl)c3)ncnc2cn1 [N-(4-((3-Chloro-4-fluorophenyl)amino)-pyrido[3,4-d]pyrimidin-6-yl)-2-butynamide]
- inhibition of ligand-induced pERK activation [1]: specifically inhibited
- inhibition of ligand-induced pERK activation [2]: specifically inhibited

Compound: neuregulin-1β [native NRG]
- greater affinity for HER3 and HER4 than HER1 [3]: approximately 5000 fold
- ERK phosphorylation (pERK response) [4]: dose-dependent increase in ERK phosphorylation
- cardiomyocyte viability in the presence of doxorubicin [5]: significantly (p<0.05) decreased
- aggregation of soluble ErbB3 receptors (hydrodynamic radius) [6]: Only bivalent NN induced aggregation
- pKd [7]: ~9.15
- pKd [8]: ~5.26

Compound: COc1cccc2c1C(=O)c1c(O)c3c(c(O)c1C2=O)C[C@@](O)(C(=O)CO)C[C@@H]3O[C@H]1C[C@H](N)[C@H](O)[C@H](C)O1 [doxorubicin]
- cumulative dose at which risk of developing impaired myocardial function increases [9]: about 300 mg/m^2

Compound: NC: Monovalent NRG used as comparator to bivalent NN
- phosphorylation of ErbB2 and ErbB3 receptors [10]: stimulates phosphorylation
- aggregation of soluble ErbB3 receptors (hydrodynamic radius) [6]: Only bivalent NN induced aggregation

Compound: SDF-1(S4V): Protease resistant form of SDF-1, delivered via self-assembling peptide nanofibers
- capillary density (isolectin-positive staining) [11]: increased capillary density
